ChEMBL document CHEMBL1127007, “Quinazolinones 2: QSAR and in vivo characterization of AT1 selective AII antagonists” (Bioorg Med Chem Lett, 1993)
Values joined by “and” are separate entries in the source; they are usually repeats but may differ in a detail not shown here. Identical values can stand only once.

Key:
[1] = biological target: T1, Type-1 angiotensin II receptor (Oryctolagus cuniculus, UniProt P34976); assay: Ability to displace [125I]Sar1-Ile8-AII from angiotensin II receptor, type 1 in rabbit aorta in presence of 0.2% bovine serum albumin (BSA) was determined in vitro; type: tissue-based
T1 sequence (P34976 whole entry): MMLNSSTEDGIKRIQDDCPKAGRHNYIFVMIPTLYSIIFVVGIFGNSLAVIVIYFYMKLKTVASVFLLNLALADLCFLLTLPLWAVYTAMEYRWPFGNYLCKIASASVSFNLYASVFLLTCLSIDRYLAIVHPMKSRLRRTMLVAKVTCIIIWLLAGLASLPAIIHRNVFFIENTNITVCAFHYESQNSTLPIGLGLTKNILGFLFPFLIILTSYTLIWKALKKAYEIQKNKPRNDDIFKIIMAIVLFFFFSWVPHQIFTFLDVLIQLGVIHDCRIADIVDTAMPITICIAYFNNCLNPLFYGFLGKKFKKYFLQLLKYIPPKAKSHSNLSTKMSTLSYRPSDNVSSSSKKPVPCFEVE

[2] = system: Rattus norvegicus; assay: Compound was evaluated in vivo for inhibition of the AII pressor response in normotensive rat at dose 1 mg/kg, iv after <0.5 hour; type: functional
[3] = biological target: T2, Type-2 angiotensin II receptor (Homo sapiens) (UniProt P50052); assay: In vitro antagonist activity against the Angiotensin II (type 2) receptor.; type: functional
T2 sequence (whole entry): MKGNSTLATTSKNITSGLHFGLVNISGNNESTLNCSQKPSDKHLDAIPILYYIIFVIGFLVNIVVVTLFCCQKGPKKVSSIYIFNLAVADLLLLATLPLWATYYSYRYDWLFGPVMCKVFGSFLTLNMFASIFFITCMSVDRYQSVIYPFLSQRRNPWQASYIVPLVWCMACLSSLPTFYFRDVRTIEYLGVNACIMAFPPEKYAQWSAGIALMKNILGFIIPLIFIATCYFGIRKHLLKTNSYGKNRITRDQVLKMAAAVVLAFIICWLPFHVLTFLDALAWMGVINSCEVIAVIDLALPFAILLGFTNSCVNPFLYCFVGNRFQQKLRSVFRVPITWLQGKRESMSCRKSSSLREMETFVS

[4] = biological target: Angiotensin II receptor (Rattus norvegicus) (UniProt P29089+P25095+P35351); assay: Duration of action as time for pressor response to fall below 30% for a single bolus by intravenous dose; type: functional, organism-based
[5] = biological target: T1, Type-1 angiotensin II receptor; assay: Displacement of [125I]Sar1-Ile8-AII (without BSA) from type 1 Angiotensin II receptor of rabbit aorta; type: tissue-based
[6] = system: Rattus norvegicus; assay: The duration of action is expressed as the time for the % inhibition of pressor response to fall below 30% for a single bolus of the drug administered perorally.; type: functional
[7] = system: Rattus norvegicus; assay: Compound was evaluated in vivo for inhibition of the AII pressor response in normotensive rat at dose 1 mg/kg, iv after 0.3 hour; type: functional
[8] = system: Rattus norvegicus; assay: Compound was evaluated in vivo for inhibition of the AII pressor response in normotensive rat at dose 3 mg/kg, iv after >6 hour; type: functional
[9] = system: Rattus norvegicus; assay: Compound was evaluated in vivo for inhibition of the AII pressor response in normotensive rat at dose 3 mg/kg, p.o. after >6 hour; type: functional; settings: route oral
[10] = system: Rattus norvegicus; assay: Compound was evaluated in vivo for inhibition of the AII pressor response in normotensive rat at dose 1 mg/kg, iv after >6 hour; type: functional
[11] = system: Rattus norvegicus; assay: Compound was evaluated in vivo for inhibition of the AII pressor response in normotensive rat at dose 0.3 mg/kg, p.o. after 3.5 hour; type: functional; settings: route oral
[12] = system: Rattus norvegicus; assay: Compound was evaluated in vivo for inhibition of the AII pressor response in normotensive rat at dose 1 mg/kg, iv after 0.1 hour; type: functional
[13] = system: Rattus norvegicus; assay: Compound was evaluated in vivo for inhibition of the AII pressor response in normotensive rat at dose 1 mg/kg, p.o. after >5 hour; type: functional; settings: route oral
[14] = system: Rattus norvegicus; assay: Compound was evaluated in vivo for inhibition of the AII pressor response in normotensive rat at dose 0.03 mg/kg, po; type: functional
[15] = system: Rattus norvegicus; assay: Compound was evaluated in vivo for inhibition of the AII pressor response in normotensive rat at dose 0.1 mg/kg, iv after 2.5 hour; type: functional
[16] = system: Rattus norvegicus; assay: Compound was evaluated in vivo for inhibition of the AII pressor response in normotensive rat at dose 0.03 mg/kg, iv; type: functional
[17] = system: Rattus norvegicus; assay: Compound was evaluated in vivo for inhibition of the AII pressor response in normotensive rat at dose 0.1 mg/kg, p.o. after >3 hour; type: functional; settings: route oral
[18] = system: Rattus norvegicus; assay: Compound was evaluated in vivo for inhibition of the AII pressor response in normotensive rat at dose 0.3 mg/kg, iv after 4 hour; type: functional
[19] = system: Rattus norvegicus; assay: Compound was evaluated in vivo for inhibition of the AII pressor response in normotensive rat at dose 0.3 mg/kg, p.o. after >3.5 hour; type: functional; settings: route oral
[20] = system: Rattus norvegicus; assay: Compound was evaluated in vivo for inhibition of the AII pressor response in normotensive rat at dose 1 mg/kg, iv after 0.5 hour; type: functional
[21] = system: Rattus norvegicus; assay: Compound was evaluated in vivo for inhibition of the AII pressor response in normotensive rat at dose 0.3 mg/kg, iv; type: functional

| SMILES | IC50 [1] [nM] | Activity [3] [nM] | Duration [4] | IC50 [5] [nM] | other results |
| --- | --- | --- | --- | --- | --- |
| CCCCc1nc2ccc(N(C)C(=O)OCc3ccccc3)cc2c(=O)n1Cc1ccc(-c2ccccc2-c2nnn[nH]2)cc1 | 0.83 |  |  |  |  |
| CCCCc1nc2ccc(N(C)C)cc2c(=O)n1Cc1ccc(-c2ccccc2-c2nn[nH]n2)cc1 | 5 | > 1000 | > 0.5 h |  | inhibition in vivo at 1 mg/kg [2]: 55% |
| CCCCc1nc2ccc(C(C)C)cc2c(=O)n1Cc1ccc(-c2ccccc2-c2nn[nH]n2)cc1 | 5 | > 1000 |  | 4 | Duration [6]: >6 h; inhibition in vivo at 1 mg/kg [7]: 34%; inhibition in vivo at 3 mg/kg [8]: 90%; inhibition in vivo at 3 mg/kg [9]: 72% |
| CCCCc1nc2ccc(NCc3ccccc3)cc2c(=O)n1Cc1ccc(-c2ccccc2-c2nn[nH]n2)cc1 | 8 |  |  | 1.1 |  |
| O=C(O)c1ccccc1-c1ccc(-c2nc3ccc([N+](=O)[O-])cc3c(=O)n2Cc2ccc(-c3ccccc3-c3nnn[nH]3)cc2)cc1 | 940 |  |  |  |  |
| CCCCc1nc2ccc(N(C)C(=O)OCC(C)C)cc2c(=O)n1Cc1ccc(-c2ccccc2-c2nnn[nH]2)cc1 | 3.4 |  |  | 1.6 |  |
| CCCCc1nc2ccc(-c3ccccn3)cc2c(=O)n1Cc1ccc(-c2ccccc2-c2nnn[nH]2)cc1 |  |  |  | 5 |  |
| CCCCc1nc2ccc(N(C)C(=O)OCC(C)C)cc2c(=O)n1Cc1ccc(-c2ccccc2-c2nn[nH]n2)cc1 |  | > 1000 |  |  | Duration [6]: 3.5 h; inhibition in vivo at 1 mg/kg [10]: 72%; inhibition in vivo at 0.3 mg/kg [11]: 60% |
| CCCCc1nc2ccc(SC)cc2c(=O)n1Cc1ccc(-c2ccccc2-c2nn[nH]n2)cc1 | 7 | > 1000 | 0.1 h |  | inhibition in vivo at 1 mg/kg [12]: 44% |
| CCCCc1nc2ccc(NC(=O)N(C)C(C)C)cc2c(=O)n1Cc1ccc(-c2ccccc2-c2nn[nH]n2)cc1 |  | > 1000 | > 6 h and 4 h and 2.5 h |  | Duration [6]: >5 h and >3.5 h and >3 h; inhibition in vivo at 1 mg/kg [10]: 94%; inhibition in vivo at 1 mg/kg [13]: 84%; inhibition in vivo at 0.03 mg/kg [14]: 16%; inhibition in vivo at 0.1 mg/kg [15]: 85%; inhibition in vivo at 0.03 mg/kg [16]: 15%; inhibition in vivo at 0.1 mg/kg [17]: 58%; inhibition in vivo at 0.3 mg/kg [18]: 96%; inhibition in vivo at 0.3 mg/kg [19]: 80% |
| CCCCc1nc2ccc(C)cc2c(=O)n1Cc1ccc(-c2ccccc2-c2nnn[nH]2)cc1 |  |  |  | 1.1 |  |
| CCCCc1nc2ccc(S(C)(=O)=O)cc2c(=O)n1Cc1ccc(-c2ccccc2-c2nn[nH]n2)cc1 | 3 | > 1000 | 0.5 h | 7.6 | inhibition in vivo at 1 mg/kg [20]: 79% |
| Cc1ccc2nc(-c3ccc(-c4ccccc4C(=O)O)cc3)n(Cc3ccc(-c4ccccc4-c4nn[nH]n4)cc3)c(=O)c2c1 | 92 |  |  |  |  |
| CCCCc1nc2ccc(N(C)C(=O)OCc3ccccc3)cc2c(=O)n1Cc1ccc(-c2ccccc2-c2nn[nH]n2)cc1 |  | > 1000 | 0 h |  | inhibition in vivo at 0.3 mg/kg [21]: 28% |
| CCCCc1nc2ccc(NS(=O)(=O)C(F)(F)F)cc2c(=O)n1Cc1ccc(-c2ccccc2-c2nn[nH]n2)cc1 | 120 |  |  |  |  |
| Nc1ccc2nc(-c3ccc(-c4ccccc4C(=O)O)cc3)n(Cc3ccc(-c4ccccc4-c4nn[nH]n4)cc3)c(=O)c2c1 | 33 |  |  |  |  |
